{
  "source": "patent US20240294537A1",
  "about": "“SOLID STATE FORMS OF 4-[[4-(4-CHLOROANILINO)FURO[2,3-d]PYRIDAZIN-7-yl]OXYMETHYL]-N-METHYLPYRIDINE-2-CARBOXAMIDE AND SALT THEREOF” (TEVA PHARMACEUTICALS INTERNATIONAL GMBH, priority 2021, published 2024)",
  "assay": "Stability of the solid state form upon exposure to humidity",
  "format": "physicochemical",
  "method": "Telatinib mono mesylate Form TM2 is stable upon exposure to high humidity. Telatinib mono mesylate is stable when exposed to 20-100% RH at 25° C. for 7 days.",
  "data": [
    {"compound": "CNC(=O)c1cc(COc2nnc(Nc3ccc(Cl)cc3)c3ccoc23)ccn1.CS(=O)(=O)O", "note": "[Telatinib mono mesylate Form TM2]", "values": [
      {"measurement": "stability upon exposure to high humidity", "value": "stable"}
    ]}
  ]
}
